Experimental data as given in patent US20050203135A1, “Antagonists for treatment of CD/11CD18 adhesion receptor mediated disorders” (Genentech, Inc., priority 1998, published 2005).

Columns and labels:
human LFA-1:ICAM-1 = molecular target: T1, human LFA-1:ICAM-1 (Homo sapiens, UniProt P05107+P20701); assay: human LFA-1:ICAM-1 receptor binding assay (format not stated)
T1 construct: containing the full-length cDNAs for the aL (CD11a) and b2 (CD18) subunits; made in house

[1] = test system: HuT 78 cell adhesion to 5dICAM-Ig; assay: Human T-cell adhesion assay (cell attachment assay); assay type: cell-based; conditions: HuT78
Method: The T-cell adhesion assay is performed using a human T-lymphoid cell line HuT 78. Goat anti-HuIgG(Fc) was diluted to 2 μg/ml in PBS and 96-well plates were coated with 50 μl/well @ 37° C. for 1 h. Plates were washed with PBS and blocked for 1 h @ room temperature with 1% BSA in PBS. 5 domain ICAM-Ig was diluted to 100 ng/ml in PBS and 50 μl/well was added to the plates O/N @ 4° C. HuT 78 cells were centrifuged at 100 g and the cell pellet was treated with 5 mM EDTA for 5′ at 37° C. in a 5% CO2 incubator. Cells were washed in 0.14M NaCl, 0.02M Hepes, 0.2% Glucose and 0.1 mM MnCl2 (assay buffer) and centrifuged. The cells were resuspended in assay buffer to 3.0×10^6 c/ml. Inhibitors were diluted in assay buffer to a 2× final concentration and pre-incubated with HuT 78 cells for 30′ at room temperature. 100 μl/well of cells and inhibitors were added to the plates and incubated at room temperature for 1 h. 100 μl/well PBS was added and the plates were sealed and centrifuged inverted at 100 g for 5′. Unattached cells were flicked out of the plate and excess PBS was blotted on a paper towel. […] The enzyme reaction was stopped with 90 μl/well 50 mM Glycine/5 mM EDTA and read on a platereader at […]. HUT 78 cell adhesion to 5dICAM-Ig is measured using the p-nitrophenyl n-acetyl-β-D-glucosaminide method of Landegren, U. (1984) J. Immunol. […]

T1 sequence (P20701 26-1170): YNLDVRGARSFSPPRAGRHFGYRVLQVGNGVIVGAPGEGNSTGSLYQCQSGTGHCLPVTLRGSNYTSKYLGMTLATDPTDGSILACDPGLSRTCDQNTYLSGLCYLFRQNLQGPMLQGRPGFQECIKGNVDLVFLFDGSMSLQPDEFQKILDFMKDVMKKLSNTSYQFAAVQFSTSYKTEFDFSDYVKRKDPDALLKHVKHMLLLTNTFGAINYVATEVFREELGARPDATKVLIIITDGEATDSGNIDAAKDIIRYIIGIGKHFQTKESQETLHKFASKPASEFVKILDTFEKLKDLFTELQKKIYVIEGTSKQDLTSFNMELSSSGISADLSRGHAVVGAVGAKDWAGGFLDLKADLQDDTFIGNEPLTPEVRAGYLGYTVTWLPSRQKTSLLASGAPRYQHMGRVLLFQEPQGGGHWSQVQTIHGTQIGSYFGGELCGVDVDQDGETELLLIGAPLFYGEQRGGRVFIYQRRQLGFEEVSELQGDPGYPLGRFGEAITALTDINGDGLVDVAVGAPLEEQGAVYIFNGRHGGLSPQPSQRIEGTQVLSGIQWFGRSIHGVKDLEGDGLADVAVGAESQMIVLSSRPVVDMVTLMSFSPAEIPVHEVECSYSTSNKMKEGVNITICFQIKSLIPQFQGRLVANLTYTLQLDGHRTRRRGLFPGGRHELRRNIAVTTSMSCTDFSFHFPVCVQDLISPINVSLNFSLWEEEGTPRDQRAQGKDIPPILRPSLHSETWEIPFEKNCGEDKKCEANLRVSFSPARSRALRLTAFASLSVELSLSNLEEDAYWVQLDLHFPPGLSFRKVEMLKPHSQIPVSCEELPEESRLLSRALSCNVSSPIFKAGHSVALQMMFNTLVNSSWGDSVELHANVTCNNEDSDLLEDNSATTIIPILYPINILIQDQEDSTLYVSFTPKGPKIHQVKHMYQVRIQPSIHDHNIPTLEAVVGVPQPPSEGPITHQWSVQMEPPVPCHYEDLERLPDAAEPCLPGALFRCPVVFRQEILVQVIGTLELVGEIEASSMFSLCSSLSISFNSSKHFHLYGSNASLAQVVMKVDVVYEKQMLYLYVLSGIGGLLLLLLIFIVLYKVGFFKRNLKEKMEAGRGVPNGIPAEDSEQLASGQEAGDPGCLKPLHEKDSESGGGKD
T1 sequence (P05107 23-769): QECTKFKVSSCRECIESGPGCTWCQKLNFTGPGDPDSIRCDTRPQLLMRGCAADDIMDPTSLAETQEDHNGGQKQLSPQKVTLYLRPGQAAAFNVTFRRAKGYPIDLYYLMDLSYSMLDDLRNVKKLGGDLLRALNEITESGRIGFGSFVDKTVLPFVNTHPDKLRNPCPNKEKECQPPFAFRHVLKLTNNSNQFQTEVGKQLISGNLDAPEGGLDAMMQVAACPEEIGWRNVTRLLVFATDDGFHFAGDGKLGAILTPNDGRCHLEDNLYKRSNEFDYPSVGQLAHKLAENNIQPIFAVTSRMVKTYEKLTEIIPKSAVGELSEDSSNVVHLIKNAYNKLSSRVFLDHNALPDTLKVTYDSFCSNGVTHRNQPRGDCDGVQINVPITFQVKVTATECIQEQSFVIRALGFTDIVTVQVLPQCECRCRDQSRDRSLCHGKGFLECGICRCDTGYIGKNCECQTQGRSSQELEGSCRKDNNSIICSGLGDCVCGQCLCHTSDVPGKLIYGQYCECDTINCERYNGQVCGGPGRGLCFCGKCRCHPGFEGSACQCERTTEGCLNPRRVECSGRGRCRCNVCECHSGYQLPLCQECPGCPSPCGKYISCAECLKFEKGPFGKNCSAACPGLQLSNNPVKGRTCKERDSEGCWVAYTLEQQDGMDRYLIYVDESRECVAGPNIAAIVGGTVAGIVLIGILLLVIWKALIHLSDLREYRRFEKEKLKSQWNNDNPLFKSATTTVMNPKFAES

IC50 (human LFA-1:ICAM-1): ~2 µM
IC50 [1]: ~10 µM
Structure (SMILES): O=C(N[C@@H](Cc1c[nH]c2ccccc12)C(=O)O)c1ccccc1Br [2-Bromobenzoyltryptophan]
